“Also recorded” adds a separate entry of the source. Where a SMILES comes first, the peptide text is derived from it. The star is where a group is joined. Palmitoyl = CCCCCCCCCCCCCCCC(=O)*; Myristoyl = CCCCCCCCCCCCCC(=O)*; Lauroyl = CCCCCCCCCCCC(=O)*; Octanoyl = CCCCCCCC(=O)*

Experimental findings from paper PMC10813153, “Development of a Novel Covalently Bonded Conjugate of Caprylic Acid Tripeptide (Isoleucine–Leucine–Aspartic Acid) for Wound-Compatible and Injectable Hydrogel to Accelerate Healing” (Biomolecules, 2024) are described below.

Series [1] is described as follows: Hydrogel formation, confirmed by vial inversion method. The class given is physicochemical. The following applies: for Gelation Time: time after the pH was adjusted to 7.4; for Hydrogel stability when shaken by hand: visual, compared with other conjugates; for Concentration at which hydrogel forms in PBS: PBS buffer, remained a solution below, vial inversion test; for Gelation Feature: conjugate 1.5% w/v in PBS saline, pH 6.5–7.8, dissolved at pH 9 then readjusted, sonication, vial inversion. The method, then: Lyophilized fatty acid–peptide conjugates were dissolved in phosphate-buffered saline (PBS) at a final concentration of 0.5% (5.0 mg in 1 mL of PBS), 1.5% (15.0 mg in 1 mL of PBS), and 3% (30.0 mg in 1 mL of PBS). The pH of the peptide solutions was increased to 9.0 by adding 0.1 M NaOH to dissolve the compounds and readjusted to pH 2–8 by the drop-wise addition of 0.1 N HCl, followed by sonication. […] The gel formation was confirmed by the vial inversion method, and photographs were taken.

Assay in series [2]: as above
Type of series: physicochemical. Particulars: 1.5% w/v in PBS.

The nature of series [3]: Gross assessment of toxicity during wound healing test. Also on record: species or system C57BL/6J mice. The following applies: mouse, in vivo. The source says: The animal use protocol was authorized and approved by the Institutional Animal Care and Use Committee of Louisiana State University Health Sciences Center, New Orleans, and followed the ARRIVE guidelines. Briefly, full-thickness burn wounds (6 mm diameter) were generated in the dorsal skin on both sides along the midline of C57BL/6J mice (female, 18 months old, Jackson Laboratory, Bar Harbor, ME, USA) at 0 days post burn (dpb), similar to the procedures performed by us and others previously. Each treatment group included four mice. […] We monitored mouse health and behavior, including drinking, foraging, grooming, and eating, and we examined all wounds twice per day to ensure that the hydrogel and dressing stayed in place. Wound healing was assessed as described previously. The wounds were photographed, and their areas were calculated using NIH ImageJ software version 1.54d. […] The livers, kidneys, and spleens were also collected, weighed, and measured for size to obtain a gross assessment of toxicity. […] The epithelial gap—i.e., the distance between the neoepithelium emerging from the edges of the wound area—was measured using OLYMPUS OlyVIA software version 3.4.1 (Build 26606), as described previously but with some modifications.

Regarding `CCCCCCCC(=O)N[C@H](C(=O)N[C@@H](CC(C)C)C(=O)N[C@@H](CC(=O)O)C(N)=O)C(C)C` [Compound 13] (Octanoyl-Val-Leu-Asp-NH2), the “Gelation Time” value in series [1] (1.5% w/v in PBS) came out at 6 min.
With `CCCCCCCC(=O)N[C@H](C(=O)N[C@@H](CC(C)C)C(=O)N[C@@H](CC(=O)O)C(N)=O)[C@@H](C)CC` [Compound 2, caprylic acid–isoleucine–leucine–aspartic acid amide conjugate] (Octanoyl-Ile-Leu-Asp-NH2), in series [1] (1.5% w/v in PBS, pH 2–8), the “Gel stability at pH 2–8” value is “gelated and stable; also recorded: formed a hydrogel and stayed gelated”. Further, in series [1], the “Hydrogel stability when shaken by hand” value is reported as “more stable than either (3) or (4)”. Further, the “Gel stability at pH 10” value in series [2] is on record as “no gelation”. Moreover, in series [3], the “Systematic or local toxicity during the wound healing test” value is reported as “did not show systematic or local toxicity”.
Turning to `CCCCCCCC(=O)N[C@@H](C)C(=O)N[C@@H](CC(C)C)C(=O)N[C@@H](CC(=O)O)C(N)=O` [Compound 11] (Octanoyl-Ala-Leu-Asp-NH2), the “Gelation Time” value in series [1] (1.5% w/v in PBS) stood at 3 min.
Regarding `CCCCCCCCCCCCCCCC(=O)N[C@H](C(=O)N[C@@H](CC(C)C)C(=O)N[C@@H](CC(=O)O)C(N)=O)[C@@H](C)CC` [Compound 4] (Palmitoyl-Ile-Leu-Asp-NH2), the “Gelation Time” value in series [1] (1.5% w/v in PBS) is reported as 10 min. Further, the “Concentration at which hydrogel forms in PBS” value in series [1] is given as ≥ 0.25 % (w/v).
Regarding `CCCCCCCC(=O)N[C@H](C(=O)N[C@@H](CC(C)C)C(=O)N[C@@H](CC(=O)O)C(=O)O)[C@@H](C)CC` [Compound 5] (Octanoyl-Ile-Leu-Asp-OH), the “Gelation Feature” value in series [1] is given as “unable to form a hydrogel at all; also recorded: Not gelate”.
On to `CCCCCCCC(=O)N[C@H](C(=O)N[C@@H](C)C(=O)N[C@@H](CC(=O)O)C(N)=O)[C@@H](C)CC` [Compound 9] (Octanoyl-Ile-Ala-Asp-NH2), for which the “Gelation Time” value in series [1] (1.5% w/v in PBS) was 2 min.
`CCCCCCCC(=O)N[C@@H](CC(C)C)C(=O)N[C@H](C(=O)N[C@@H](CC(=O)O)C(N)=O)[C@@H](C)CC` [Compound 15] (Octanoyl-Leu-Ile-Asp-NH2): in series [1] (1.5% w/v in PBS), the “Gelation Time” value is 5 min.
With `CCCCCCCCCCCC(=O)N[C@H](C(=O)N[C@@H](CC(C)C)C(=O)N[C@@H](CC(=O)O)C(N)=O)[C@@H](C)CC` [Compound 3] (Lauroyl-Ile-Leu-Asp-NH2), the “Gelation Time” value in series [1] (1.5% w/v in PBS) is 6 min. Also, the “Concentration at which hydrogel forms in PBS” value in series [1] was ≥ 0.25 % (w/v).
On to `CCCCCCCCCCCC(=O)N[C@H](C(=O)N[C@@H](CC(C)C)C(=O)N[C@@H](CC(=O)O)C(=O)O)[C@@H](C)CC` [Compound 6] (Lauroyl-Ile-Leu-Asp-OH), for which, in series [1] (1.5% w/v in PBS), the “Gelation Time” value is 7 min. Further, in series [1], the “Gelation Feature” value is listed as “Hydrogels were formed” and the “Hydrogel stability when shaken by hand” value is on record as “weaker than those formed by Cn acid-ILD-NH2 with the same Cn acid”.
As to `CCCCCCCC(=O)N[C@@H](CC(C)C)C(=O)N[C@@H](CC(C)C)C(=O)N[C@@H](CC(=O)O)C(N)=O` [Compound 12] (Octanoyl-Leu-Leu-Asp-NH2), in series [1] (1.5% w/v in PBS), the “Gelation Time” value came to 5 min.
Consider `CCCCCCCCCCCCCCCC(=O)N[C@H](C(=O)N[C@@H](CC(C)C)C(=O)N[C@@H](CC(=O)O)C(=O)O)[C@@H](C)CC` [Compound 8] (Palmitoyl-Ile-Leu-Asp-OH), for which the “Gelation Time” value in series [1] (1.5% w/v in PBS) is on record as 15 min. Also, in series [1], the “Gelation Feature” value is “Hydrogels were formed” and the “Hydrogel stability when shaken by hand” value is recorded as “weaker than those formed by Cn acid-ILD-NH2 with the same Cn acid”.
`CCCCCCCC(=O)N[C@H](C(=O)N[C@H](C(=O)N[C@@H](CC(=O)O)C(N)=O)[C@@H](C)CC)[C@@H](C)CC` [Compound 14] (Octanoyl-Ile-Ile-Asp-NH2): in series [1] (1.5% w/v in PBS), the “Gelation Time” value is reported as 5 min.
For the compound `CCCCCCCC(=O)N[C@H](C(=O)N[C@H](C(=O)N[C@@H](CC(=O)O)C(N)=O)C(C)C)[C@@H](C)CC` [Compound 10] (Octanoyl-Ile-Val-Asp-NH2), the “Gelation Time” value in series [1] (1.5% w/v in PBS) came to 3 min.
In the case of `CCCCCCCCCCCCCC(=O)N[C@H](C(=O)N[C@@H](CC(C)C)C(=O)N[C@@H](CC(=O)O)C(=O)O)[C@@H](C)CC` [Compound 7] (Myristoyl-Ile-Leu-Asp-OH), the “Gelation Time” value in series [1] (1.5% w/v in PBS) was 10 min. In series [1], the “Gelation Feature” value was “Hydrogels were formed” and the “Hydrogel stability when shaken by hand” value is given as “weaker than those formed by Cn acid-ILD-NH2 with the same Cn acid”.
With `CC[C@H](C)[C@H](N)C(=O)N[C@@H](CC(C)C)C(=O)N[C@@H](CC(=O)O)C(N)=O` [Compound 1] (H-Ile-Leu-Asp-NH2), in series [1], the “Gelation Feature” value is listed as “did not gelate”.
